# Reference: patent publication US12416034B2, “Recombinant production of steviol glycosides” (EVOLVA SA, priority 2011, dated 2025)
# B1: bifunctional CDPS-KS: bifunctional CDPS-KS from Gibberella fujikuroi, NCBI Accession no Q9UVY5.1 (protein, listed as Gibberella fujikuroi)
# chain: MPGKIENGTPKDLKTGNDFVSAAKSLLDRAFKSHHSYYGLCSTSCQVYDTAWVAMIPKTRDNVKQWLFPECFHYLLKTQAADGSWGSLPTTQTAGILDTASAVLALLCHAQEPLQILDVSPDEMGLRIEHGVTSLKRQLAVWNDVEDTNHIGVEFIIPALLSMLEKELDVPSFEFPCRSILERMHGEKLGHFDLEQVYGKPSSLLHSLEAFLGKLDFDRLSHHLYHGSMMASPSSTAAYLIGATKWDDEAEDYLRHVMRNGAGHGNGGISGTFPTTHFECSWIIATLLKVGFTLKQIDGDGLRGLSTILLEALRDENGVIGFAPRTADVDDTAKALLALSLVNQPVSPDIMIKVFEGKDHFTTFGSERDPSLTSNLHVLLSLLKQSNLSQYHPQILKTTLFTCRWWWGSDHCVKDKWNLSHLYPTMLLVEAFTEVLHLIDGGELSSLFDESFKCKIGLSIFQAVLRIILTQDNDGSWRGYREQTCYAILALVQARHVCFFTHMVDRLQSCVDRGFSWLKSCSFHSQDLTWTSKTAYEVGFVAEAYKLAALQSASLEVPAATIGHSVTSAVPSSDLEKYMRLVRKTALFSPLDEWGLMASIIESSFFVPLLQAQRVEIYPRDNIKVDEDKYLSIIPFTWVGCNNRSRTFASNRWLYDMMYLSLLGYQTDEYMEAVAGPVFGDVSLLHQTIDKVIDNTMGNLARANGTVHSGNGHQHESPNIGQVEDTLTRFTNSVLNHKDVLNSSSSDQDTLRREFRTFMHAHITQIEDNSRFSKQASSDAFSSPEQSYFQWVNSTGGSHVACAYSFAFSNCLMSANLLQGKDAFPSGTQKYLISSVMRHATNMCRMYNDFGSIARDNAERNVNSIHFPEFTLCNGTSQNLDERKERLLKIATYEQGYLDRALEALERQSRDDAGDRAGSKDMRKLKIVKLFCDVTDLYDQLYVIKDLSSSMK
# Legend:
# [1] = Coupled AtSUS/EUGT11 reaction, RebD formation; format: biochemical; conditions: ~200 mM sucrose, 1 mM UDP, 100 μM RebA, GST-AtSUS1 and GST-EUGT11
# Method: SUS catalyzes the formation of UDP-glucose and fructose from sucrose and from UDP as depicted in FIG. 11. This UDP-glucose then can be used by EUGT11 for glycosylation of RebA to produce RebD. In vitro assays as described above were performed, adding ˜200 mM sucrose, 1 mM UDP, 100 μM RebA, ˜1.6 μg purified GST-AtSUS1 and ˜0.8 μg GST-EUGT11. Formation of product, RebD, was evaluated by LC-MS. When AtSUS, EUGT11, sucrose and UDP were mixed with RebA, 81±5 μM of RebD was formed. The reaction was dependent on the presence of AtSUS, EUGT11 and sucrose. The conversion rate was similar to what has been observed previously using UDP-glucose provided extraneously.
# [2] = UDP-glucose regenerating activity of sucrose synthase; format: biochemical; conditions: 1 mM UDP, ~200 mM sucrose, 37° C., 24 h
# Method: Experiments were performed to evaluate the UDP-glucose regenerating activity of the purified GST-AtSUS1 and GST-SrSUS1. In vitro assays were conducted in 100 mM Tris-HCl pH=7.5 and 1 mM UDP (final concentration). Either ˜2.4 μg of purified GST-AtSUS1, ˜0.15 μg of GST-SrSUS1, or ˜1.5 μg commercial BSA (New England Biolabs, Ipswich, MA) were also added. Reactions were done in presence or absence of ˜200 mM sucrose and incubated at 37° C. for 24 h. Product UDP-glucose was measured by HPLC as described in the analytical section. AtSUS1 produced ˜0.8 mM UDP-glucose when sucrose was present. […] The lack of activity observed for SrSUS1 could be explained by the poor quality and concentration of the purified enzyme. UDP-glucose production by AtSUS1 was sucrose dependent and, therefore, it was concluded that AtSUS1 can be used in a coupled reaction to regenerate the UDP-glucose used by EUGT1 or other UGTs for small molecule glycosylation (FIG. 11, above).
# ERG9 = test: Amorphadiene production (indirect FPP accumulation), GC-MS; format: cell-based, S. cerevisiae; conditions: 72 h, construct in front of ERG9
# Excerpt: DNA fragments encompassing an ERG9 promoter upstream sequence (for homologous recombination), an expression cassette for the gene (NatR) that confers resistance to Nourseothricin, a CYC1 promoter (SEQ ID NO: 185, FIG. 21), a 5′ UTR sequence with a stemloop structure, and an ERG9 ORF sequence (for homologous recombination) were generated by PCR. DNA fragments that contained either the CYC1 promoter or the KEX2 promoter (SEQ ID NO: 186) but no stemloops were also generated as controls. The flanking ERG9 sequences for recombination as well as the stemloop structure were introduced via the PCR oligos. The DNA fragments were transformed into an S. cerevisiae host strain that subsequently was selected on nourseothricin containing growth plates. […]
# The Amorpha-4,11-diene Synthase (ADS) gene catalyzes the chemical reaction that turns one FPP molecule into Amorpha-4,11-diene in the plant Artemisia annua. […] Amorpha-4,11-diene production was measured and compared to the standard compound caryophyllene, as described by (Ro et al. 2006. Nature 440(7086):940-943; Paradise et al. Biotechnol Bioeng. 2008 Jun. 1; 100(2):371-8; Newman et al. Biotechnol Bioeng 95(4):684-691).
# Engineered yeast strains were grown in SC 2% glucose with uracil dropped out. […] 10 μl of the dodecane layer was sampled and diluted 100 fold in ethyl acetate for quantification by GC-MS […]
# [3] = In vitro assay of lysates of EUGT11-expressing cells after permeabilization treatment; format: biochemical, S. cerevisiae; conditions: lysates of EUGT11 transformants, untreated or after LiAC/PEG, Triton X100 or LS treatment
# Method: Experiments were done to establish conditions for permeabilization in E. coli and in yeast. Growing cells (S. cerevisiae or E. coli) were treated with different concentrations/combinations of permeabilization agents: toluene, chloroform and ethanol for permeabilization of S. cerevisiae, and guanidine, lactic acid, DMSO and/or Triton X-100 for permeabilization of E. coli. Tolerance of both model organisms to high concentrations of RebA and other potential substrates also was evaluated. The permeabilization was measured by the amount of RebD produced from a EUGT11-expressing organism after incubation in a RebA containing medium (feeding experiment). Enzyme activity was monitored before and after exposure to the permeabilizing agents by lysing the cells and analyzing the activity of the released UGTs in an in vitro assay.
# Treatment with Triton X-100 0.3% or 0.5%, however, increased the amount of RebD above background levels (see FIG. 18) while sustaining the activity of EUGT11. For Triton X-100 assays, overnight cultures were washed three times in PBS buffer. Cells corresponding to 6 OD600 units were resuspended in PBS containing 0.3% or 0.5% Triton X-100 respectively. […]
# Lysates from transformants expressing EUGT11 were able to convert some RebA into RebD (8 to 50 μM were measured in the reactions) when cells were untreated or after treatment with LiAC/PEG or Triton X100.
# [4] = test system: Saccharomyces cerevisiae EFSC1923; test: Steviol 19-O-monoside production in EFSC1923 with plasmid-expressed enzymes; format: cell-based; conditions: shake flask, co-expressed with KAH-3
# Method: The 150 nucleotides at the 5′ end of the Zea mays CDP synthase coding sequence in Table 15 (SEQ ID NO:157, see FIG. 14) was deleted, the remainder of the coding sequence was provided with a new translation start ATG, and the truncated sequence was operably linked to the GPD1 promoter in the multicopy plasmid p423GPD in Saccharomyces cerevisiae EFSC1923. Plasmid p423GPD is described in Mumberg, D et al, Gene, 156: 119-122(1995). EFSC1923 and EFSC1923 plus p423GPD-Z.m.tCDPS were grown in for 96 hours in selective yeast medium containing 4% glucose. The amount of steviol 19-O-monoside produced by EFSC1923+p423GPD-Z.m.tCDPS (the truncated Zea mays CDPS) under these conditions was approximately 2.5 fold more than that produced by EFSC1923 without the plasmid.
# The Arabidopsis thaliana KAH coding sequence from Table 15 was inserted in a multicopy plasmid designated p426GPD, under the control of the GPD1 promoter. Plasmid p426GPD is described in Mumberg, D et al, Gene. 156: 119-122(1995).
# EFSC1923 was transformed with both p423GPD-Z.m.tCDPS and p426 p426GPD-A.t.KAH.
# A bifunctional CDPS-KS from Gibberella fujikuroi (NCBI Accession no: Q9UVY5.1, FIG. 15) was cloned and compared to the truncated CDPS-5. […]
molecule,measurement,setting,value
AtSUS1: A. thaliana SUS1 sucrose synthase,RebD formed,[1],81 ± 5 µM
same,UDP-glucose produced,[2],~0.8 mM
SEQ ID NO: 181: heterologous insert TGAATTCGTTAACGAATTC behind the CYC1 promoter in front of ERG9 (expressed or natural sequence),increased production of amorphadiene,ERG9,2.5 ×
"CCCCCCCCCCCCN(C)CC(=O)O [LS, N-lauryl sarcosine]",RebD measured in reactions of lysates,[3],no RebD was measured
B1,activity in producing steviol 19-O-monoside relative to EFSC1923 with the KAH-3 alone,[4],about 5.8 times
